Test results taken from paper PMC2678901 (Drug metabolism and disposition: the biological fate of …, 2008).

Test system: CYP3A
Settings: 5 μM inhibitor; liver microsomes of RIF-pretreated TgCYP3A4/hPXR mice; 50 μM MDZ

`CC(=O)N1CCN(c2ccc(OCC3COC(Cn4ccnc4)(c4ccc(Cl)cc4Cl)O3)cc2)CC1` (stereo not shown) [ketoconazole] was tested, and the “Inhibition of CYP3A activity” value was “markedly inhibited”.
